Measurements as given in patent US12180198B2, “Ribocil C antibiotics effective for Gram-negative pathogens” (THE BOARD OF TRUSTEES OF THE UNIVERSITY OF ILLINOIS, priority 2018, dated 2024).
In brackets after ≈: the same amount, converted by molar mass. Counter-ions that a name gives are not always drawn. Like-named read-outs stand apart in the source and are kept apart here.

Assays:
A. baumannii KB304 = experiment: MIC, micro-dilution broth method; assay type: cell-based; conditions: Acinetobacter baumannii
Procedure: (§1) Compounds were evaluated against a panel of Gram-positive and Gram-negative organisms. MIC values were determined using the micro-dilution broth method as outlined by the Clinical and Laboratory Standards Institute (clsi.org/) and are listed in […]. All experiments were performed in biological triplicate.
(§2) Antimicrobial susceptibility tests. Susceptibility testing was performed in biological triplicate, using the micro-dilution broth method as outlined by the Clinical and Laboratory Standards Institute. Bacteria were cultured with cation-adjusted Muller-Hinton broth (Sigma-Aldrich, Cat #90922) in round-bottom 96-well plates (Corning, Cat #3788). Human serum (pooled gender, 0.2 μm filtered) was purchased from BioIVT (Hicksville, NY).

A. baumannii KB343 = experiment: MIC, micro-dilution broth method; assay type: cell-based; conditions: Acinetobacter baumannii
Procedure: as §1, §2

E. coli ΔrfaC JW3596 = experiment: MIC, micro-dilution broth method; assay type: cell-based; conditions: Escherichia coli
Procedure: as §1, §2

K. pneumoniae BAA-2472 = experiment: MIC, micro-dilution broth method; assay type: cell-based; conditions: Klebsiella pneumoniae, BAA2472
Procedure: as §1, §2

H. sapiens IMR-90 = experiment: Cell viability, Alamar Blue; assay type: cell-based
Procedure: Cell culture. IMR90 cells were obtained from ATCC. IMR90 cells were grown in EMEM with 10% fetal bovine serum (Gemini Benchmark, Cat #100-106), 100 U/mL penicillin, and 100 μg/mL streptomycin. All cells were cultured at 37° C. in a 5% CO2 environment. Media was prepared by the University of Illinois School of Chemical Sciences Cell Media Facility. Sex and age of cell lines: IMR90 ([…]).
Cell viability. Cells seeded (IMR90: 5,000 cells/well) a 96-well plate (Greiner Bio-One, Cat #655180) and were allowed to attach overnight. Cells were treated with investigational compounds in DMSO (30 μM, 1% DMSO final, 100 μL/well). Raptinal (100 μM) was used as a dead control. After 24 h post-treatment, media was exchanged with compound-free media. After 72 h post-treatment, cell viability was assessed using the Alamar Blue method. Stock Alamar Blue solution [10 μL, 440 μM resazurin (Sigma-Aldrich, Cat #R7017) in sterile 1×PBS] was added to each well, and plate was incubated […]. Conversion of Alamar Blue was measured with plate reader (SpectraMax M3, Molecular Devices) by fluorescence (ex 555 nm, em 585 nm, cutoff 570 nm, autogain). Percent death was determined by normalizing to DMSO-treated cells and raptinal-treated cells.

E. coli BAA-2469 = experiment: Bioactivity against exemplary strains of bacteria (Table 5A); assay type: cell-based; design: unit not given here; conditions: Strain 2: E. coli BAA-2469
A. baumannii BAA-2093 = experiment: as above; assay type: cell-based; conditions: Strain 3: A. baumannii BAA-2093
K. pneumoniae BAA-2146 = experiment: as above; assay type: cell-based; conditions: Strain 4: K. pneumoniae BAA-2146
[1] = system: E. coli strains with intact outer membranes; experiment: MIC, micro-dilution broth method (text summary); assay type: cell-based; conditions: Escherichia coli
Procedure: FIG. 2. Antimicrobial activity of Debio-1452 and derivatives. MIC values were determined using the micro-dilution broth method as outlined by the Clinical and Laboratory Standards Institute (clsi.org/). All experiments were performed in biological triplicate.
as §2

E. coli FabI = E. coli FabI (Escherichia coli, UniProt P0AEK4); experiment: In vitro FabI inhibition assay; assay type: biochemical; conditions: 20 nM enzyme
E. coli FabI, sequence (P0AEK4 whole entry): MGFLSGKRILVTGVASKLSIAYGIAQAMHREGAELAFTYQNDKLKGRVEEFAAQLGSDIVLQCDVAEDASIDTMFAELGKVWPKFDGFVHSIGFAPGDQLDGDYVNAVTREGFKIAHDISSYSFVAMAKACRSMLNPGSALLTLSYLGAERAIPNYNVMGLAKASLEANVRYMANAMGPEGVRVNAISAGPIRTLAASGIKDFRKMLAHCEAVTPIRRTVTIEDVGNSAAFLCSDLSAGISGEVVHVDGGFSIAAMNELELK
Procedure: Expression and purification of E. coli FabI. E. coli BL21 (DE3) pLysS (Novagen) were transformed with pET15-ecFabI. Overnight culture (10 mL) in LB supplemented with 50 μg/mL ampicillin from single colony was diluted into 1 L LB+50 μg/mL ampicillin. Cells were grown at 37° C., 250 rpm until OD600 reached 0.8. Culture was cooled to 18° C. and induced with 0.5 mM IPTG for 18 h at 18° C. Cells were harvested by centrifugation (5,000×g, 10 min, 4° C.). Cell pellets were flash frozen and store at −20° C. pending purification. Frozen cell pellets were thawed on ice and resuspended (5 mL per gram wet pellet, typically 20-30 mL) with 0.5% CHAPS, 1 mM PMSF, 1 μg/mL leupeptin, 1 μg/mL pepstatin A, and 2 μg/mL aprotinin in binding buffer [20 mM Tris (pH 7.9), 500 mM NaCl, 5 mM imidazole]. Cells were lysed by sonication on ice (30%, 10 s pulse, 20 s rest, 5 min total). Lysate was clarified by centrifugation (35,000×g, 1 h, 4° C.) and filtration through 0.2 μm syringe filter. Lysate was incubated with 5 mL Co-NTA agarose (HisPur cobalt resin, Thermo-Fisher Scientific Cat #89965, pre-equilibrated with binding buffer) for 30 min at 4° C. with gentle rocking. Agarose-containing lysate was transferred to column and flow through discarded. Column was washed with 2 column volumes of binding buffer followed by 10 column volumes of wash buffer [20 mM Tris (pH 7.9), 500 mM NaCl, 60 mM imidazole]. Protein was eluted with 15 mL elution buffer [20 mM Tris (pH 7.9), 500 mM NaCl, 300 mM imidazole]. […] Protein concentration was determined by BCA assay (ThermoFisher Cat #23227).
In vitro FabI inhibition assay. […] Plate was placed in plate-reader (SpectraMax 190, Molecular Devices) under temperature control (25° C.), and temperature was allowed to equilibrate. […] After shaking for 5 s, reaction progress was monitored by absorbance at 340 nm every 15 s for 90 min. Linear portion of reaction progress curve was fit using plate-reader software (SoftMax Pro 7.0). Percent activity was calculated relative to DMSO-only and no-enzyme controls in each plate. […]

Row | Compound | MIC (A. baumannii KB304; A. baumannii KB304, read-out: MIC) [µg/mL] | MIC (A. baumannii KB343; A. baumannii KB343, read-out: MIC) [µg/mL] | MIC (E. coli ΔrfaC JW3596) [µg/mL] | MIC (K. pneumoniae BAA-2472; K. pneumoniae BAA-2472, read-out: MIC) [µg/mL] | inhibition at 30 µM (H. sapiens IMR-90; H. sapiens IMR-90, 30 μM, 24 h exposure, viability at 72 h, read-out: % inhibition at 30 μM) [%] | Bioactivity (E. coli BAA-2469) | Bioactivity (A. baumannii BAA-2093) | Bioactivity (K. pneumoniae BAA-2146) | MIC ([1]; E. coli strains with intact outer membranes, read-out: MIC) [µg/mL] | inhibition of E. coli FabI in vitro (in words) (E. coli FabI) | MIC (A. baumannii KB304; KB304) [µg/mL] | MIC (A. baumannii KB343; KB343) [µg/mL] | MIC (K. pneumoniae BAA-2472) [µg/mL] | toxicity to mammalian cells grown in culture (in words) (H. sapiens IMR-90; 24 hour exposures) | inhibition at 30 µM (H. sapiens IMR-90; Homo sapiens, IMR-90, read-out: % inhibition at 30 μM) [%] | MIC [1] [µg/mL]
1 | Cc1c(CN(C)C(=O)/C=C/c2cnc3c(c2)CCC(=O)N3)oc2ccccc12 [Debio-1452, (E)-N-methyl-N-((3-methylbenzofuran-2-yl)methyl)-3-(7-oxo-5,6,7,8-tetrahydro-1,8-naphthyridin-3-yl)acrylamide, reference compound] | > 32 | > 32 | 0.5 (≈ 1.33 µM) | > 32 | 16 | >32 | 16 | >32 | > 32 | potent FabI inhibitors | – | – | – | – | – | –
2 | Cc1c(CN(C)C(=O)/C=C/c2cnc3c(c2)CC(N)C(=O)N3)oc2ccccc12 (stereo not drawn) [Debio-1452-NH3, (E)-3-(6-amino-7-oxo-5,6,7,8-tetrahydro-1,8-naphthyridin-3-yl)-N-methyl-N-((3-methylbenzofuran-2-yl)methyl)acrylamide hydrochloride] | – | – | 0.25 | – | – | 4 | 4 | 32 | – | potent FabI inhibitors | 64 | 64 | 16 | little toxicity | 30 | 4
